Test results: paper PMC5750217 (Nature Communications, 2018)

Columns and labels:
GltPh-R397C = target: T1, GltPh-R397C (Pyrococcus horikoshii, UniProt O59010, R397C); assay: biochemical; conditions: for Transport of radiolabelled substrate into proteoliposomes (in words): 100 nM L-[3H]aspartate, 1 µM L-[3H]glutamine, 10 µM 35S-cysteine ± 1 mM DTT, Na+ gradient
T1 construct: hexa-His (N, cleaved yes); made in house; host or cells: Escherichia coli Top10 (pBAD)
Procedure: (§1) Mutant and wild-type GltPh with an amino-terminal hexa-His tag were expressed in Escherichia coli Top10 cells (Invitrogen), which were grown in Luria broth medium at 37 °C. Ampicillin was added to a final concentration of 100 μg per ml. To induce expression of GltPh, 0.1% L-arabinose was added when cells reached an optical density of 0.6 at 660 nm, and cells were harvested 4 h post induction. Membranes were isolated, and then solubilised with n-dodecyl-β-D-maltopyranoside (C12M, Anatrace). Histidine containing proteins were purified using Ni^2+−nitrilotriacetic acid resin (Qiagen). The histidine tag was subsequently removed from GltPh by digestion with thrombin (10 U per mg protein) and the protein further purified on a Superdex 200 size exclusion column, where the detergent was exchanged to n-decyl-β-D-maltopyranoside (C10M, Anatrace).
(§2) Pure protein was reconstituted into liposomes composed of 75% E. coli Polar Lipid Extract and 25% 1-palmitoyl-2-oleoyl-sn-glycero-3 ^−phopshocholine (Avanti Polar Lipids). Lipids were mixed, dried under nitrogen and resuspended in internal buffer (100 mM KCl, 20 mM HEPES-Tris pH 7.5) using brief sonication (Laboratory Supplies Co.). The lipid suspension was frozen in liquid nitrogen and thawed at room temperature several times. Liposomes were formed by extrusion through 400 nm polycarbonate membranes (Avanti Polar Lipids) and were treated with Triton X-100 at a 0.5:1 (w/w) detergent to lipid ratio prior to the addition of protein at 0.25 μg protein per mg lipid. The protein/lipid mixture was left at room temperature for 30 min before detergent was removed using SM2 Biobeads (BioRad). The mixture was then incubated with gentle agitation, with four consecutive batches of Biobeads (80 mg per ml). Proteoliposomes were concentrated by centrifugation at 150,000 g for 30 min, resuspended at 100 mg lipid per ml and either used immediately or flash-frozen in liquid nitrogen and stored at −80 °C.
(§3) Mutant and wild-type GltPh-mediated transport of radiolabelled substrate was assayed by diluting proteoliposomes (100 mg lipid per ml) 133-fold into uptake buffer (100 mM NaCl, 20 mM HEPES-Tris pH 7.5, 1 μM valinomycin, 100 nM–1 µM L-[^3H]substrate) pre-warmed to 30 °C. At each time point, a 200 µl aliquot was removed and diluted 10-fold into ice-cold quench buffer (100 mM LiCl, 20 mM HEPES-Tris pH 7.5), followed by immediate filtration over nitrocellulose filters (0.22 μm pore size, Millipore). The filters were washed with ice-cold quench buffer and assayed for radioactivity using a Trilux beta counter (PerkinElmer). To establish substrate concentration–response curves, extraliposomal L-[^3H]substrate was varied between 500 nM and 100 µM, maintaining NaCl concentrations at 300 mM. For inhibitor concentration–response curves, for wild-type GltPh 100 nM L-[^3H]aspartate, and for mutant GltPh 1 µM L-[^3H]serine, was co-applied with varying inhibitor concentrations. Background levels of uptake were measured by diluting proteoliposomes into internal buffer (100 mM KCl, 20 mM HEPES-Tris pH 7.5) containing 1 µM of valinomycin and the indicated concentrations of L-[^3H]substrate.
Supplementary Figure 6. GltPh‐R397C, ASCT1 and ASCT2 are functional cysteine transporters. (a) Purified GltPh‐R397C was reconstituted into liposomes and 10µM 35S‐cysteine transport was measured over 10 minutes alone or in the presence of 1 mM dithiothreitol (DTT). Background levels of uptake were measured by diluting proteoliposomes into internal buffer (100 mM KCl, 20 mM HEPES‐Tris pH 7.5) containing 1 µM of valinomycin and the 10µM 35S‐cysteine. […]
(c) Neutral amino acid exchange in GltPh‐R397C. Counterflow experiments in which Na+ and amino acid loaded liposomes were used to detect the transport of a range of unlabelled neutral amino acids by exchanging with external 3H‐serine. Counterflow assays were performed using liposomes containing 200mM NaCl, 20 mM HEPES/Tris pH 7.5, and 1 mM of unlabelled amino acid as indicated. […]

wild-type GltPh = target: T2, wild-type GltPh (Pyrococcus horikoshii, UniProt O59010); assay: Proteoliposome transport assay, wild-type GltPh; type: biochemical; conditions: for Transport of radiolabelled substrate into proteoliposomes (in words): 1 µM L-[3H]substrate, Na+ gradient, pH 7.5
T2 construct: hexa-His (N, cleaved yes); made in house; host or cells: Escherichia coli Top10 (pBAD)
T2 sequence (O59010 1-425): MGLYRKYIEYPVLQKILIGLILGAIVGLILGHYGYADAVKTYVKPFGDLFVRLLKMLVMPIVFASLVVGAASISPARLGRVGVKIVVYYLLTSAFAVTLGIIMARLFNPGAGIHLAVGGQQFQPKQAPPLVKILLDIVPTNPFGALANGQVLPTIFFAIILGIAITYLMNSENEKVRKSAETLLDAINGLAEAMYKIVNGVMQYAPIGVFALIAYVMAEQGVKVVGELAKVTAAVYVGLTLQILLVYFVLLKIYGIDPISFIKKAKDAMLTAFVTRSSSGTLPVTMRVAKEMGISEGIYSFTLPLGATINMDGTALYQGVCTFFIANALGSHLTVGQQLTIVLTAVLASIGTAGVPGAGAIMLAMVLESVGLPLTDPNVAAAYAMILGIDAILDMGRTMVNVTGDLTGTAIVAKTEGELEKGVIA
Procedure: as §1, §2, §3

T1 sequence (O59010 whole entry R397C): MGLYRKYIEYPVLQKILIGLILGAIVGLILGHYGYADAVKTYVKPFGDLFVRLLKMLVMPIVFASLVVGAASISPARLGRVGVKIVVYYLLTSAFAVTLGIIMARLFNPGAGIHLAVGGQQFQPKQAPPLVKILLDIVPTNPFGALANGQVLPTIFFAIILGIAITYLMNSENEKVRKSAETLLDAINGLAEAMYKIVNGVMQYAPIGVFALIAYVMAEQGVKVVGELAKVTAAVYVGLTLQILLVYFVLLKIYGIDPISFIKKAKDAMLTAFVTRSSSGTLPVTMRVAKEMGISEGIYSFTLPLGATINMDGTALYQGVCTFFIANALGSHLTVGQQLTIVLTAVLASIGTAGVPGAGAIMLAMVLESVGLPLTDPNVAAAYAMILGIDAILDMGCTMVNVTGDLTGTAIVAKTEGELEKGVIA

| SMILES | Transport of radiolabelled substrate into proteoliposomes (in words) (GltPh-R397C; GltPh-R397C, listed as L-Glutamine) | Transport of radiolabelled substrate into proteoliposomes (in words) (GltPh-R397C; GltPh-R397C, listed as L-[^3H]glutamine) | Reduction of L-[3H]serine transport by unlabelled competitor (GltPh-R397C; GltPh-R397C, 10 µM L-[3H]serine, 100-fold excess unlabelled amino acid) | Transport of radiolabelled substrate into proteoliposomes (in words) (wild-type GltPh) | IC50 for inhibition of L-[3H]serine transport (GltPh-R397C; GltPh-R397C, 1 µM L-[3H]serine) | IC50 for inhibition of L-[3H]aspartate transport (wild-type GltPh; 100 nM L-[3H]aspartate) | EC50 (GltPh-R397C) [µM] | Fold lower affinity for GltPh-R397C compared with L-aspartate for wild-type GltPh (GltPh-R397C; serine at GltPh-R397C vs L-aspartate at wild-type GltPh) [fold] |
| --- | --- | --- | --- | --- | --- | --- | --- | --- |
| NC(=O)CC[C@H](N)C(=O)O [L-glutamine] | not a substrate | not transported at levels above background | able to bind and inhibit | not transported |  |  |  |  |
| N[C@@H](CCC(=O)Nc1ccc([N+](=O)[O-])cc1)C(=O)O [GPNA, glutamyl-p-nitroanilide] |  |  |  |  | poorly inhibited | ineffective |  |  |
| N[C@@H](CO)C(=O)O [L-serine] |  |  |  | not transported |  |  | 4.5 ± 0.9 | 100 |
